Columns and labels:
p-ERK in AGS cells = test: p-ERK assay in AGS cells (fixed cells, anti-p-ERK / β-Actin antibodies, IR imaging); assay type: cell-based; details: Homo sapiens, 3 h at 37° C., p-ERK detected by antibody with β-Actin, IR fluorescence
Experimental: The expression of p-ERK was detected in this assay. At first, the AGS cells (40000 cells/well) were seeded in 96-well plate culture overnight and treated with KRAS-G12D compounds inhibitors at concentrations of 1, 0.33, 0.11, 0.03, 0.01, 0.004, 0.001, 0.0004, 0.0001 μM for 3 h at 37° C. Then, add an equal volume (100 μL) of 8% paraformaldehyde solution to fix and crosslink the cells to the microplate for 15 minutes. Add 100 μL of 1× permeabilization solution to wells for 30 min and add 100 μL of 1× blocking solution for 2 h. Wash with PBS 3 times after each reaction. At last, Incubation with primary antibody (Anti-mouse β-Actin and Anti-rabbit p-ERK) and secondary antibody (Goat anti-Mouse IgG H&L IRDye 800CW and Goat anti-Rabbit IgG H&L IRDye 680RW) for 2 h, As appropriate, image the microplate with an IR scanner or develop the HRP labeled microplate and read it with a spectrophotometer. The fluorescence signal was monitored using a microplate reader (Azure biosystems, Sapphire biomolecular imager) using excitation and emission wavelengths of 680 and 800 nm, respectively. Export data. The inhibitor dose-reponse curves were analyzed using normalized IC50 regression curve fitting with control based normalization.

GP2d cells = test: Cellular proliferation assay in GP2d cells (CellTiterGlo luminescent cell viability assay); assay type: cell-based; details: 72 hours treatment, CellTiter-Glo
Experimental: Example 32: Cellular Proliferation Assay in GP2d Cells
The inhibitory effect of test compounds on cellular proliferation was determined using CellTiterGlo® luminescent cell viability assay (Promega) following manufacturer's instruction.
GP2d cells (ECACC #95090715) were cultured in DMEM medium supplemented with 10% fetal bovine serum, 10 U/ml penicillin and 10 ug/ml streptomycin. Cells were plated in 96-well plates at a density of 2000 cells/well and allowed attach for […]. Then the cells were treated with various concentrations of test compounds for 72 hours. CellTiter-Glo® Reagent was added to wells and incubated for 10 minutes at room temperature. The plates were read on GloMax® 96 Microplate Luminometer or compatible microplate readers. The percentage of cellular viability was calculated as: […]

Compound	IC50 (p-ERK in AGS cells) [nM]	IC50 (GP2d cells) [nM]
Fc1c(-c2cccc3ccc4c(c23)CCO4)ncc2c(N3C[C@H]4CC[C@@H](C3)N4)nc(OC[C@@]34CCCN3C[C@H](F)C4)nc12 [Example 3, 4-((1R,5S)-3,8-diazabicyclo[3.2.1]octan-3-yl)-7-(1,2-dihydronaphtho[2,1-b]furan-9-yl)-8-fluoro-2-(((2R,7aS)-2-fluorotetrahydro-1H-pyrrolizin-7a(5H)-yl)methoxy)pyrido[4,3-d]pyrimidine]	8800	8800
Fc1c(-c2cccc3ccc4occc4c23)ncc2c(N3C[C@H]4CC[C@@H](C3)N4)nc(OC[C@@]34CCCN3C[C@H](F)C4)nc12 [Example 4, 4-((1R,5S)-3,8-diazabicyclo[3.2.1]octan-3-yl)-8-fluoro-2-(((2R,7aS)-2-fluorotetrahydro-1H-pyrrolizin-7a(5H)-yl)methoxy)-7-(naphtho[2,1-b]furan-9-yl)pyrido[4,3-d]pyrimidine]	4900	4750
Oc1cc(-c2ncc3c(N4C[C@H]5CC[C@@H](C4)N5)nc(OC[C@@]45CCCN4C[C@H](F)C5)nc3c2F)c2c(ccc3occc32)c1 [Example 5, 9-(4-((1R,5S)-3,8-diazabicyclo[3.2.1]octan-3-yl)-8-fluoro-2-(((2R,7aS)-2-fluorotetrahydro-1H-pyrrolizin-7a(5H)-yl)methoxy)pyrido[4,3-d]pyrimidin-7-yl)naphtho[2,1-b]furan-7-ol]	37	2860
Oc1cc(-c2ncc3c(N4C[C@H]5CC[C@@H](C4)N5)nc(OC[C@@]45CCCN4C[C@H](F)C5)nc3c2F)c2c3c(ccc2c1)OCC3 [Example 6, 9-(4-((1R,5S)-3,8-diazabicyclo[3.2.1]octan-3-yl)-8-fluoro-2-(((2R,7aS)-2-fluorotetrahydro-1H-pyrrolizin-7a(5H)-yl)methoxy)pyrido[4,3-d]pyrimidin-7-yl)-1,2-dihydronaphtho[2,1-b]furan-7-ol]	588	9290
Oc1cc(-c2ncc3c(N4CC5CCC4CN5)nc(OC[C@@]45CCCN4C[C@H](F)C5)nc3c2F)c2c3c(ccc2c1)CCC3 (stereo partly drawn) [Example 7, 9-(4-(2,5-diazabicyclo[2.2.2]octan-2-yl)-8-fluoro-2-(((2R,7aS)-2-fluorotetrahydro-1H-pyrrolizin-7a(5H)-yl)methoxy)pyrido[4,3-d]pyrimidin-7-yl)-2,3-dihydro-1H-cyclopenta[a]naphthalen-7-ol]	149	920
CN(C)CC1(COc2nc(N3C[C@H]4CC[C@@H](C3)N4)c3cnc(-c4cc(O)cc5ccc6c(c45)CCC6)c(F)c3n2)CC1 [Example 8, 9-(4-((1R,5S)-3,8-diazabicyclo[3.2.1]octan-3-yl)-2-((1-((dimethylamino)methyl)cyclopropyl)methoxy)-8-fluoropyrido[4,3-d]pyrimidin-7-yl)-2,3-dihydro-1H-cyclopenta[a]naphthalen-7-ol]	41	284
Oc1cc(-c2ncc3c(N4C[C@H]5CC[C@@H](C4)N5)nc(OCC4(CN5CCOCC5)CC4)nc3c2F)c2c3c(ccc2c1)CCC3 [Example 9, 9-(4-((1R,5S)-3,8-diazabicyclo[3.2.1]octan-3-yl)-8-fluoro-2-((1-(morpholinomethyl)cyclopropyl)methoxy)pyrido[4,3-d]pyrimidin-7-yl)-2,3-dihydro-1H-cyclopenta[a]naphthalen-7-ol]	31	175
Oc1cc(-c2ncc3c(N4C[C@H]5CC[C@@H](C4)N5)nc(OCCCN4C5CCC4COC5)nc3c2F)c2c3c(ccc2c1)CCC3 [Example 10, 9-(2-(3-(3-oxa-8-azabicyclo[3.2.1]octan-8-yl)propoxy)-4-((1R,5S)-3,8-diazabicyclo[3.2.1]octan-3-yl)-8-fluoropyrido[4,3-d]pyrimidin-7-yl)-2,3-dihydro-1H-cyclopenta[a]naphthalen-7-ol]	205	261
C[C@@H]1COCCN1CC1(COc2nc(N3C[C@H]4CC[C@@H](C3)N4)c3cnc(-c4cc(O)cc5ccc6c(c45)CCC6)c(F)c3n2)CC1 [Example 11, 9-(4-((1R,5S)-3,8-diazabicyclo[3.2.1]octan-3-yl)-8-fluoro-2-((1-(((R)-3-methylmorpholino)methyl)cyclopropyl)methoxy)pyrido[4,3-d]pyrimidin-7-yl)-2,3-dihydro-1H-cyclopenta[a]naphthalen-7-ol]	135	169
C[C@@H](COc1nc(N2C[C@H]3CC[C@@H](C2)N3)c2cnc(-c3cc(O)cc4ccc5c(c34)CCC5)c(F)c2n1)CN1C2CCC1COC2 [Example 12, 9-(2-((2R)-3-(3-oxa-8-azabicyclo[3.2.1]octan-8-yl)-2-methylpropoxy)-4-((1R,5S)-3,8-diazabicyclo[3.2.1]octan-3-yl)-8-fluoropyrido[4,3-d]pyrimidin-7-yl)-2,3-dihydro-1H-cyclopenta[a]naphthalen-7-ol]	17	48.4
CC1(O)CCCN(c2nc(OCC34CCCN3C[C@H](F)C4)nc3c(F)c(-c4cc(O)cc5ccc6c(c45)CCC6)ncc23)C1 (stereo partly drawn) [Example 13, 1-(8-fluoro-2-(((2R)-2-fluorotetrahydro-1H-pyrrolizin-7a(5H)-yl)methoxy)-7-(7-hydroxy-2,3-dihydro-1H-cyclopenta[a]naphthalen-9-yl)pyrido[4,3-d]pyrimidin-4-yl)-3-methylpiperidin-3-ol]	22	10
CC1CCc2ccc3cc(O)cc(-c4ncc5c(N6C[C@H]7CC[C@@H](C6)N7)nc(OC[C@@]67CCCN6C[C@H](F)C7)nc5c4F)c3c21 (stereo partly drawn) [Example 14, 9-(4-((1R,5S)-3,8-diazabicyclo[3.2.1]octan-3-yl)-8-fluoro-2-(((2R,7aS)-2-fluorotetrahydro-1H-pyrrolizin-7a(5H)-yl)methoxy)pyrido[4,3-d]pyrimidin-7-yl)-1-methyl-2,3-dihydro-1H-cyclopenta[a]naphthalen-7-ol]	85	429
Oc1cc(-c2ncc3c(N4C[C@H]5CC[C@@H](C4)N5)nc(OC[C@@]45CCCN4C[C@H](F)C5)nc3c2F)c2c(ccc3ccsc32)c1 [Example 15, 9-(4-((1R,5S)-3,8-diazabicyclo[3.2.1]octan-3-yl)-8-fluoro-2-(((2R,7aS)-2-fluorotetrahydro-1H-pyrrolizin-7a(5H)-yl)methoxy)pyrido[4,3-d]pyrimidin-7-yl)naphtho[1,2-b]thiophen-7-ol]	159	541
Oc1cc(-c2ncc3c(N4C[C@H]5CC[C@@H](C4)N5)nc(OC[C@@]45CCCN4C[C@H](F)C5)nc3c2F)c2c3c(ccc2c1)CCCC3 [Example 16, 4-(4-((1R,5S)-3,8-diazabicyclo[3.2.1]octan-3-yl)-8-fluoro-2-(((2R,7aS)-2-fluorotetrahydro-1H-pyrrolizin-7a(5H)-yl)methoxy)pyrido[4,3-d]pyrimidin-7-yl)-5,6,7,8-tetrahydrophenanthren-2-ol]	5	849
Oc1cc(-c2ncc3c(N4C[C@H]5CC[C@@H](C4)N5)nc(OC[C@@]45CCCN4C[C@H](F)C5)nc3c2F)c2c(c1)cc1n2CCC1 [Example 19, 5-(4-((1R,5S)-3,8-diazabicyclo[3.2.1]octan-3-yl)-8-fluoro-2-(((2R,7aS)-2-fluorotetrahydro-1H-pyrrolizin-7a(5H)-yl)methoxy)pyrido[4,3-d]pyrimidin-7-yl)-2,3-dihydro-1H-pyrrolo[1,2-a]indol-7-ol]	–	3060
Oc1cc(-c2ncc3c(N4C[C@H]5CC[C@@H](C4)N5)nc(OC[C@@]45CCCN4C[C@H](F)C5)nc3c2F)c2c(ccn3cccc23)c1 [Example 22, 10-(4-((1R,5S)-3,8-diazabicyclo[3.2.1]octan-3-yl)-8-fluoro-2-(((2R,7aS)-2-fluorotetrahydro-1H-pyrrolizin-7a(5H)-yl)methoxy)pyrido[4,3-d]pyrimidin-7-yl)pyrrolo[2,1-a]isoquinolin-8-ol]	–	3340
Oc1cc(-c2cc3nc(OC[C@@]45CCCN4C[C@H](F)C5)nc(N4C[C@H]5CC[C@@H](C4)N5)c3cn2)c2c3c(ccc2c1)CCC3 [Example 30, 9-(4-((1R,5S)-3,8-diazabicyclo[3.2.1]octan-3-yl)-2-(((2R,7aS)-2-fluorotetrahydro-1H-pyrrolizin-7a(5H)-yl)methoxy)pyrido[4,3-d]pyrimidin-7-yl)-2,3-dihydro-1H-cyclopenta[a]naphthalen-7-ol]	–	409
Oc1cc(-c2c(Cl)cc3c(N4C[C@H]5CC[C@@H](C4)N5)nc(OC[C@@]45CCCN4C[C@H](F)C5)nc3c2F)c2c3c(ccc2c1)CCC3 [Example 31, 9-(4-((1R,5S)-3,8-diazabicyclo[3.2.1]octan-3-yl)-6-chloro-8-fluoro-2-(((2R,7aS)-2-fluorotetrahydro-1H-pyrrolizin-7a(5H)-yl)methoxy)quinazolin-7-yl)-2,3-dihydro-1H-cyclopenta[a]naphthalen-7-ol]	–	737
